{
  "source": "patent US20240299416A1",
  "about": "“TREATMENT OF NF-kB-MEDIATED DISEASE” (ReveraGen BioPharma, Inc., priority 2021, published 2024)",
  "key": {"[1]": {"test": "VBP15-003 24-week dose-finding extension, safety", "type": "in vivo, human", "experimental": "Vamorolone clinical studies have been conducted in adult male volunteers and boys with DMD, a disorder in which skeletal muscle is in a chronic inflammatory state. Two consecutive open-label dose-ranging studies in 48 DMD patients aged 4 to <7 years (corticosteroid-naïve) were conducted (Phase IIa, VBP15-002; Phase IIa, VBP15-003). Doses were tested over a 24-fold dose range (0.25, 0.75, 2.0, and 6.0 mg/kg/day), with 12 participants per group. The first multiple ascending dose (MAD) cohort trial-tested pharmacokinetics (PK) and safety for 2 weeks of drug dosing followed by a 2-week washout (VBP15-002). […] All DMD participants completed the MAD study and then continued on the same dose for a 24-week dose-finding (efficacy and safety) extension study (VBP15-003).\nVBP15-002 (Phase IIa; two weeks on the drug, two weeks off drug) enrolled 48 corticosteroid-naïve participants with DMD, and all 48 participants completed the study and enrolled into VBP15-003 (Phase IIa extension; 24-week treatment). Forty-six of 48 participants completed the VBP15-003 study (2 participants withdrew from VBP15-003 for reasons unrelated to the study drug). In addition, all participants (46/46) opted to enroll in the 24-month long-term extension study, VBP15-LTE.\nOnly participants completing VBP15-002 and VBP15-003 were eligible to enroll in VBP15-LTE. Participants received vamorolone at 1 of 4 dose levels (0.25, 0.75, 2.0, or 6.0 mg/kg/day) and at the same dose level in both the 4-week VBP15-002 trial and the 24-week VBP15-003 trial. If participants, their families, and their physicians wished to continue vamorolone treatment upon exiting the VBP15-003 trial, they were offered participation in the 24-month long-term extension (VBP15-LTE). The last visit of the VBP15-003 trial was commensurate with the first visit of the VBP15-LTE trial. In all studies, study medication was provided as 4% flavored liquid suspension and was dosed according to body weight and given once daily in the morning with food.\nStudy visits took place quarterly, including assessment of clinical laboratory results, vital signs, and AEs. All AEs were coded using the Medical Dictionary for Regulatory Activities (MedDRA version 19.0) system for reporting (preferred term and system organ class). Clinical efficacy assessments were performed at baseline of the VBP15-002 study, at six months (end of VBP15-003 study), and the 12-month midpoint visit of the VBP15-LTE study."}, "[2]": {"test": "VBP15-004 height and BMI z-scores, 24 to 48 weeks", "type": "in vivo, human", "settings": "for change in height Z scores: baseline to Week 24", "experimental": "The second period of 24 weeks, where all participants receive vamorolone treatment on either of the two dose levels, will continue to capture additional longer-term safety and tolerability data.\nSubjects already on vamorolone continued on the allocated dose level. Efficacy at Week 48 was assessed by Time to Stand (TTSTAND) velocity, 6-Minute Walk Test (6MWT), Time to Run/Walk 10 meters (TTRW) velocity, and North Star Ambulatory Assessment (NSAA). […] In contrast, the persistence of effects with vamorolone 2 mg/kg/day was less pronounced for some parameters. The safety profile was consistent for subjects who continued on the same dose of vamorolone throughout the study, with no increase in frequency or severity of adverse events being observed over time. […] In addition, vamorolone treatment at both doses reversed the growth impairment seen during prednisone treatment and was associated with fewer adverse events, including those associated with corticosteroid use."}, "boys with DMD": {"test_system": "boys with DMD", "test": "VBP15-LTE month 24 PODCI and wrist x-ray bone age", "type": "in vivo, human", "text": "In addition, 39/41 LTE participants had wrist x-ray at Month 24; the mean bone age to chronologic age difference was −1.1 (p<0.001, CI −1.5, −0.7), indicating possible skeletal maturation delay (Table 7).\nPODCI is the Pediatrics Outcomes Data Collection Instrument (musculoskeletal disorders). The PODCI is a disease-specific questionnaire developed by the American Academy of Orthopedic Surgeons to measure general health and problems related to bone and muscle conditions in children. A significant increase in mean PODCI upper extremity and physical function standardized score was observed from LTE baseline to Month 24 (7.95±12.54, CI 1.003, 14.897, p=0.0278, n=15) for the combined 2.0 and 6.0 mg/kg/day initial dose group. At the same time, a non-significant decrease in mean PODCI transfer and basic mobility standardized score was observed (−4.38±22.68, CI −16.471, 7.703, p=0.451, n=16) (Table 7)."}, "glucocorticoid receptor": {"target": "T1, glucocorticoid receptor (Homo sapiens, UniProt P04150)", "T1 sequence (P04150 1-777)": "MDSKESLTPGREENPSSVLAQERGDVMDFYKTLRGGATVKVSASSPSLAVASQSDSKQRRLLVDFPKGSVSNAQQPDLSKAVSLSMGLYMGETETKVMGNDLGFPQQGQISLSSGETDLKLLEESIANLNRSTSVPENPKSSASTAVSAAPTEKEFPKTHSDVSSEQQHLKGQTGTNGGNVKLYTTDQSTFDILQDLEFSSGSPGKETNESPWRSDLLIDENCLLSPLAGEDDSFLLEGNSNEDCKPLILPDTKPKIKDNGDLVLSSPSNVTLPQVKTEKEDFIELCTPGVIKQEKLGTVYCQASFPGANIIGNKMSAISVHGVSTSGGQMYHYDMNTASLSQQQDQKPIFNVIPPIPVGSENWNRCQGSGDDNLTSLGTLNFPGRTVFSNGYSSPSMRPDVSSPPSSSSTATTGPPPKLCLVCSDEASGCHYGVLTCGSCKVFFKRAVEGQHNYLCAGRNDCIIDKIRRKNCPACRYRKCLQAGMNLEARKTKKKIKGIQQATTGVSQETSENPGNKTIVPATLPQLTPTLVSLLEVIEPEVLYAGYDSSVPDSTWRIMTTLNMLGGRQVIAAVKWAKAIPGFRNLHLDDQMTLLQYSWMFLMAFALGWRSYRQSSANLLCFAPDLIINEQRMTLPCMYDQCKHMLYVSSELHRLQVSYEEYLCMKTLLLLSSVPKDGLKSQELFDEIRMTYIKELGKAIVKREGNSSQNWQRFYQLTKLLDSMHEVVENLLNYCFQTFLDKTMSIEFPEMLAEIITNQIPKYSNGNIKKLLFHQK", "settings": "cited from earlier work"}},
  "note": "Read-outs that look alike come from different tables or passages of the source.",
  "data": [
    {"smiles": "C[C@@H]1C[C@H]2[C@@H]3CCC4=CC(=O)C=C[C@]4(C)C3=CC[C@]2(C)[C@@]1(O)C(=O)CO", "note": "[Vamorolone, 17α,21-dihydroxy-16α-methylpregna-1,4,9(11)-triene-3,20-dione]", "values": [
      {"measurement": "TEAE abnormal behavior, participants", "setting": "[1]; 2.0-mg/kg/day group", "value": "one participant"},
      {"measurement": "TEAE Cushingoid habitus, participants", "setting": "[1]; 6.0-mg/kg/day group", "value": "one participant each"},
      {"measurement": "TEAE abnormal blood cortisol level, participants", "setting": "[1]; 6.0-mg/kg/day group", "value": "one participant each"},
      {"measurement": "TEAE anxiety, participants", "setting": "[1]; 6.0-mg/kg/day group", "value": "one participant each"},
      {"measurement": "TEAE hypertrichosis, participants", "setting": "[1]; 6.0-mg/kg/day group", "value": "two participants"},
      {"measurement": "TEAE personality change, participants", "setting": "[1]; 6.0-mg/kg/day group", "value": "one participant each"},
      {"measurement": "safety and tolerability", "setting": "[1]; oral, all doses tested, 24 weeks", "value": "safe and well-tolerated"},
      {"measurement": "height (z-score), absolute value, Mean", "setting": "[2]; PDN/VAM 6 mg, Week 48", "value": "−0.12"},
      {"measurement": "BMI mean z-score", "setting": "[2]; Treatment Period 2 after switch from prednisone to vamorolone 6 mg/kg/day", "value": 1.32},
      {"measurement": "growth velocity", "setting": "[2]; both vamorolone doses, 48 weeks", "value": "preserved"},
      {"measurement": "BMI mean z-score", "setting": "[2]; continuing on 2 mg/kg/day, Week 24", "value": 1.10},
      {"measurement": "BMI mean z-score", "setting": "[2]; continuing on 2 mg/kg/day, Week 48", "value": 0.91},
      {"measurement": "BMI mean z-score", "setting": "[2]; continuing on 6 mg/kg/day, Week 24", "value": 1.40},
      {"measurement": "BMI mean z-score", "setting": "[2]; continuing on 6 mg/kg/day, Week 48", "value": 1.32},
      {"measurement": "change in height Z scores", "setting": "[2]; vamorolone 2.0 mg/kg/day", "value": "overall stable height change Z scores"},
      {"measurement": "change in height Z scores", "setting": "[2]; vamorolone 6.0 mg/kg/day", "value": "increased growth rate"},
      {"measurement": "Bone Age by wrist x-ray, mean (SD)", "setting": "boys with DMD", "value": "6.8 (1.4), n = 39 yr"},
      {"measurement": "Bone Age difference to Chronologic Age, mean (SD)", "setting": "boys with DMD", "value": "−1.1 (1.2), yr"},
      {"measurement": "Bone Age difference to Chronologic Age, mean (SD)", "setting": "boys with DMD; listed as vamorolone", "value": "−1.1", "unit": "yr"},
      {"measurement": "binding to the glucocorticoid receptor", "setting": "glucocorticoid receptor", "value": "potently binds"}
    ]}
  ]
}
